{"source": "patent EP4650353A1", "about": "(Shanghai Institute of Materia Medica, Chinese Academy of …, priority 2023, dated 2024);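 on maximum agonistic effect (Emax) recruiting β-arrestin 1: 100% equals the maximal response of endogenous GLP-1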", "key": {"human GLP-1 receptor": {"molecular_target": "T1, human GLP-1 receptor (Homo sapiens, UniProt P43220)", "T1 construct": "HA (N); expressed in transfected cells", "T1 sequence (P43220 24-463)": "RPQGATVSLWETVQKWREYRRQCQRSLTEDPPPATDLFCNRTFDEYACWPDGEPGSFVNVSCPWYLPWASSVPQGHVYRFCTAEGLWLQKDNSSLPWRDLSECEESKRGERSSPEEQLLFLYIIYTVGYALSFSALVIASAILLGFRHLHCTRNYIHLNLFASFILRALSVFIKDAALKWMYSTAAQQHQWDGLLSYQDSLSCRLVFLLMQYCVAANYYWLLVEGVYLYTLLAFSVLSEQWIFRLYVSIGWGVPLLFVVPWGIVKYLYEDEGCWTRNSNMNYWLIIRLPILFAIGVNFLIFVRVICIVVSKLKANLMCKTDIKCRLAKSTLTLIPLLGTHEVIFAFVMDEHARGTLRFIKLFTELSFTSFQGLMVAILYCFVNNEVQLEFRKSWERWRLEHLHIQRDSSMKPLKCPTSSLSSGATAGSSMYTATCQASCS", "assay": "GLP-1 receptor-mediated agonist activity: cAMP level in hGLP-1R/HEK293 cell line (HTRF)", "type": "cell-based", "details": "cAMP levels in hGLP-1R/HEK293 cell line; Table 1; read-out: determined EC50"}, "hGLP-1R KI mice": {"test_system": "hGLP-1R KI mice", "assay": "Diet inhibition by Tris salts (food intake after single oral dose)", "type": "in vivo", "details": "30 mg/kg; for duration of the food intake reducing effect / food intake: Tris salt, single oral administration", "procedure": "Mouse model: hGLP-1R KI mice, 8 female mice per experimental group.\nExperimental procedure: Mice were separated into cages and fasted 6 hours in advance, and were given drugs by oral gavage at the beginning of the night cycle (7:00 PM). The weight of food in each cage was weighed at 0, 2.5, 5, 12 (7:00 AM at the beginning of the day cycle), and 24 hours after drug administration to calculate the food intake of mice."}, "β-arrestin 2": {"test_system": "β-arrestin 2", "assay": "NanoBiT recruitment of β-arrestin 2 by GLP-1R in HEK293 cells;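 on all read-outs here: 100% equals the maximal response of endogenous GLP-1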", "type": "cell-based", "details": "Homo sapiens, read-out: maximum agonistic effect (Emax) recruiting β-arrestin 2", "text": "(§1) The Promega NanoBiT protein-protein reaction system was used to detect the recruitment of β-arrestin 1 and β-arrestin 2 by GLP-1R. The NanoBit Protein-Protein Reaction System was a dual-subunit system based on NanoLuc luciferase that could be used to detect protein-protein interactions in cells. The LgBiT (17.6 kDa) and SmBiT (11 amino acids) subunits were fused to the proteins of interest, respectively. When the proteins of interest interact, the two subunits came into close proximity to form an enzyme with catalytic activity, which could catalyze the luminescence of the luciferase substrate. Firstly, the human GLP-1R gene was connected to the N-terminus of LgBit, the β-arrestin 1/2 gene was cloned to the C-terminus of SmBit, and the fusion protein was introduced into the pcDNA3.0 vector to construct plasmids expressing hGLP-1R-LgBit and SmBit-β-arrestin 1/2 fusion proteins. The hGLP-1R-LgBit plasmid and SmBit-β-arrestin 1 (or SmBit-β-arrestin 2) plasmid were co-transfected into HEK293 cells at a ratio of 1 µg plasmid/2×10^6 cells. Immediately after transfection, the cells were added to a 96-well white-bottom plate at a density of 4×10^5 cells/well, and the cells were cultured in an incubator (37°C, 5% CO2) for 20 hours.\n(§2) After 20 hours, the liquid in the wells was discarded, 40 µL of fresh culture medium (DMEM+0.2% BSA, m/v) was added first, and then 10 µL of Nano-Glo Live Cell detection solution (Promega, #N2011) was added, and then the cells were placed in an incubator and incubated for 10 minutes. The compound was dissolved in DMSO and prepared into a storage solution with a concentration of 10mM. The experiment started with a concentration of 100µM. […] After the cells were incubated for 10 min, 25 µL of culture medium containing the compound was added to each well and incubated at room temperature for 5 min. The fluorescence signal was then detected using an Envision 2104 multi-function microplate reader (PerkinElmer). All samples were tested in triplicate, and the fluorescence signal ratio and the corresponding compound concentration were analyzed using GraphPad Prism 8 software."}, "β-arrestin 1": {"test_system": "β-arrestin 1", "assay": "NanoBiT recruitment of β-arrestin 1 by GLP-1R in HEK293 cells", "type": "cell-based", "details": "Homo sapiens, read-out: maximum agonistic effect (Emax) recruiting β-arrestin 1", "text": "as §1, §2"}, "[1]": {"test_system": "hGLP-1 receptor knock-in mice", "assay": "Long-term administration in high-fat diet fed hGLP-1R mice for weight loss", "type": "in vivo", "details": "ammonium salt", "procedure": "(§3) Genetically engineered hGLP-1R gene knock-in mice, male, 8-10 weeks old, specific pathogen free (SPF) grade, were purchased from Biocytogen Jiangsu Gene Biotechnology Co., Ltd. All experimental animals were housed in the SPF-level environment of the National Compound Sample Library animal room, with a temperature of 24±2°C, a relative humidity of 40-60%RH, an air cleanliness level of 7, and a day and night light-dark cycle of 12h/12h; they were continuously supplied with cobalt-60 radiation-sterilized complete mouse granular feed (Shanghai Shilin Biotechnology Co., Ltd., maintenance feed for rats and mice), and were allowed to drink tap water (sterilized with high-pressure steam) without interruption, and were allowed to drink it freely. The cages were transparent polyetherimide cages (Suzhou Fengshi Experimental Animal Equipment Co., Ltd., CP-8 mouse cages), and the bedding was corn cobs (Tezhou Gumei Agricultural Technology Co., Ltd., used after high-pressure steam sterilization). There were 3-5 animals in each cage, and the cage card indicated the IACUC approval number, experiment number, experiment start time, person in charge, experimenter, animal source, group and animal number. The purchased mice were adapted to this breeding environment for at least 7 days before being used in experiments. The animal use methods in this study were approved by the IACUC Committee of the Shanghai Institute of Materia Medica.\nThe mice were weighed every day, and 24 hours after the last administration, the body fat and muscle content of the mice were detected using a Bruker desktop nuclear magnetic resonance spectrometer (model LF90II). • (4) Experimental results"}, "[2]": {"test_system": "hGLP-1 receptor knock-in mice", "assay": "Mouse food intake suppression experiment (compound 19)", "type": "in vivo", "details": "30 mg/kg oral", "procedure": "as §3, with “The animal use methods in this study were approved by the IACUC Committee of the Shanghai Institute of Materia Medica.” left out"}, "hERG potassium channels": {"molecular_target": "hERG potassium channels (Homo sapiens, UniProt Q12809)", "sequence (Q12809 whole entry)": "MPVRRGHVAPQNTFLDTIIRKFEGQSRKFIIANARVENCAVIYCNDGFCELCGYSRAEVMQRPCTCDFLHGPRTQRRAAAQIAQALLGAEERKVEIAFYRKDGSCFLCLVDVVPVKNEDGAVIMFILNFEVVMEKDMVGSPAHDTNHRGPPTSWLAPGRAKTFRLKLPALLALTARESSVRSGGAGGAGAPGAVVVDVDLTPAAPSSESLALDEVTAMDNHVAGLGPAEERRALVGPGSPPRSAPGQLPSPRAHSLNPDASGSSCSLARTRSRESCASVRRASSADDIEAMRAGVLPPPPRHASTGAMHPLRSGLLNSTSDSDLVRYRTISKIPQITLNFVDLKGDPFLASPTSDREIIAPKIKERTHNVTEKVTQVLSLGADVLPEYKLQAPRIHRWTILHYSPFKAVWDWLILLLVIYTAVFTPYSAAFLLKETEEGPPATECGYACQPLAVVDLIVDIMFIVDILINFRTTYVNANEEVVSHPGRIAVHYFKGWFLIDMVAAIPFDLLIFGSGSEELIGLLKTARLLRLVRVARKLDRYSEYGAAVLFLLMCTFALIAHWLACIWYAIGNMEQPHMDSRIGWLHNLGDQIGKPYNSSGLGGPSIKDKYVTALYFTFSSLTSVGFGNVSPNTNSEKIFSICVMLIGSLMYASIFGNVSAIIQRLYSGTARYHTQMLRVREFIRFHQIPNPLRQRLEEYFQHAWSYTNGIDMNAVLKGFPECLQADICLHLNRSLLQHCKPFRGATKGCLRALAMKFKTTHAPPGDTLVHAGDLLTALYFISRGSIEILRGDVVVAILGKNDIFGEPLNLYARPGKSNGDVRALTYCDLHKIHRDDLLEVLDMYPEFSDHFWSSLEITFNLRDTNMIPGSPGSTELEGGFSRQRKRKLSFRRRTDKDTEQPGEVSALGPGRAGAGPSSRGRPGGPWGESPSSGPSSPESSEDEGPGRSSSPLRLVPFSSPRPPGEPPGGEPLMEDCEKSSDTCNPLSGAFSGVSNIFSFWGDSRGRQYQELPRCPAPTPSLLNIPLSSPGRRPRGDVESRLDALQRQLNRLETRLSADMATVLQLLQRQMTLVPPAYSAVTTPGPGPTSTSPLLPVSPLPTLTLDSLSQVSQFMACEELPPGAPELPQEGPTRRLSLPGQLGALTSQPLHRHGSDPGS", "assay": "cell-based", "procedure": "CHO cells expressing hERG protein were cultured in 175 cm^2 culture flasks. When the cell density grew to 60-80%, the culture medium was removed, the cells were washed once with 7 mL PBS, and then 3 mL Detachin was added for digestion. After digestion was complete, 7 mL of culture medium was added to neutralize, then centrifuged. The supernatant was aspirated, and 5 mL of culture medium was added to resuspend to ensure that the cell density is 2-5×10^6/mL.\nBoth the single-cell high-impedance sealing and whole-cell mode formation processes were automatically completed by the Qpatch instrument. After obtaining the whole-cell recording mode, the cell was clamped at -80 mV. Before a 5-second +20 mV depolarizing stimulus was given, a 50-ms -50 mV pre-voltage was given, and then the cell was repolarized to -50 mV for 5 seconds and then returned to -80 mV. This voltage stimulation was applied every 15 seconds. After recording for 2 minutes, the extracellular solution was recorded for 2 minutes. Then the drug administration process began. The compound concentration started from the lowest tested concentration. Each tested concentration was given for 2 minutes. […] At least three cells were tested for each concentration (n≥3).\nThe compound stock solution was diluted with extracellular fluid, 5 µL of 20 mM compound stock solution was added to 2495 µL extracellular fluid, diluted 500 times to 40 µM, and then serially diluted 3 times in extracellular fluid containing 0.2% DMSO (v/v) to obtain the final concentration to be tested.\nThe experimental data were analyzed by XLFit software."}, "[3]": {"test_system": "hGLP-1 receptor knock-in mice", "assay": "Oral glucose tolerance test in mice", "type": "in vivo", "details": "for effect compared with positive control PF-06882961 ammonium salt at the same dose: oral glucose tolerance test; for blood glucose area under the curve / blood glucose concentration: orally administered at 1 mg/kg, vs blank control; for blood glucose area under the curve: AUC(0-90)", "procedure": "as §3\n60 minutes after oral administration, blood glucose was measured again as zero-point blood glucose. Then, 2 g/kg of sugar was orally administered, and blood glucose was measured using a blood glucose meter 15 minutes, 30 minutes, 60 minutes, and 90 minutes after sugar administration. In order to explore the effect of long-term administration on glucose tolerance, 2 g/kg of sugar was orally administered again […] the administration of the compound, and the blood glucose changes were measured at 180 min, 195 min, 210 min, 240 min, and 270 min."}}, "data": [{"molecule": "CCOc1cc(C(=O)O)cc2c1nc(CN1CCN(c3cccc4c3O[C@@](C)(c3ccc(C(F)(F)F)cc3F)O4)C=N1)n2C[C@@H]1CCO1", "note": "[Compound 81-1, 4-ethoxy-2-((4-((S)-2-(2-fluoro-4-(trifluoromethyl)phenyl)-2-methylbenzo[d][1,3]dioxol-4-yl)-5,6-dihydro-1,2,4-triazin-1(4H)-yl)methyl)-1-(((S)-oxetan-2-yl)methyl)-1H-benzo[d]imidazole-6-carboxylic acid]", "values": [{"measurement": "EC50", "setting": "human GLP-1 receptor", "result": 0.0018, "unit": "nM"}, {"measurement": "inhibitory effect on eating compared with Tris salt of positive control PF-06882961 at the same dose", "setting": "hGLP-1R KI mice; at 5, 12 and 24 hours", "result": "significantly better than"}, {"measurement": "duration of the food intake reducing effect", "setting": "hGLP-1R KI mice", "result": 24, "unit": "h"}, {"measurement": "food intake", "setting": "hGLP-1R KI mice", "result": "significantly reduce the food intake"}]}, {"molecule": "COc1cc(C#N)ccc1COc1cccc(C2CCN(Cc3nc4c(OC)cc(C(=O)O)cc4n3C[C@@H]3CCO3)CC2)n1", "note": "[Compound 4, (S)-2-((4-(6-((4-cyano-2-methoxybenzyl)oxy)pyridin-2-yl)piperidin-1-yl)methyl)-4-methoxy-1-(oxetan-2-ylmethyl)-1H-benzo[d]imidazole-6-carboxylic acid]", "values": [{"measurement": "Emax", "setting": "β-arrestin 2", "result": "30 to 50", "unit": "%"}, {"measurement": "Emax", "setting": "β-arrestin 1", "result": "30 to 50", "unit": "%"}]}, {"molecule": "[2H]C([2H])([2H])C([2H])([2H])Oc1cc(C(=O)O)cc2c1nc(CN1CCN(c3cccc4c3O[C@@](C)(c3ccc(C(F)(F)F)cc3F)O4)C=N1)n2C[C@@H]1CCO1", "note": "[Compound 82-1, 4-(ethoxy-d5)-2-((4-((S)-2-(2-fluoro-4-(trifluoromethyl)phenyl)-2-methylbenzo[d][1,3]dioxol-4-yl)-5,6-dihydro-1,2,4-triazin-1(4H)-yl)methyl)-1-(((S)-oxetan-2-yl)methyl)-1H-benzo[d]imidazole-6-carboxylic acid]", "values": [{"measurement": "EC50", "setting": "human GLP-1 receptor", "result": 0.0051, "unit": "nM"}, {"measurement": "duration of the food intake reducing effect", "setting": "hGLP-1R KI mice", "result": 24, "unit": "h"}, {"measurement": "food intake", "setting": "hGLP-1R KI mice", "result": "significantly reduce the food intake"}]}, {"molecule": "N#Cc1ccc(COc2cccc(C3CCN(Cc4nc5ccc(C(=O)O)cc5n4C[C@@H]4CCO4)CC3)n2)c(F)c1", "note": "[PF-06882961, reference compound]", "values": [{"measurement": "Emax", "setting": "β-arrestin 2", "result": "75 to 80", "unit": "%"}, {"measurement": "Emax", "setting": "β-arrestin 1", "result": "75 to 80", "unit": "%"}, {"measurement": "weight gain of HFD-fed mice", "setting": "[1]; 30 mg/kg by gavage once a day, 15 days", "result": "effectively inhibit the weight gain"}, {"measurement": "reduce body weight compared with the blank control group", "setting": "[1]; 30 mg/kg once a day, after 15 days of administration, HFD", "result": 10.2, "unit": "%"}]}, {"molecule": "CCCOc1cc(C(=O)O)cc2c1nc(CN1CCC(c3cccc(OCc4ccc(C#N)cc4F)n3)CC1)n2C[C@@H]1CCO1", "note": "[Compound 3, (S)-2-((4-(6-((4-cyano-2-fluorobenzyl)oxy)pyridin-2-yl)piperidin-1-yl)methyl)-1-(oxetan-2-ylmethyl)-4-propoxy-1H-benzo[d]imidazole-6-carboxylic acid]", "values": [{"measurement": "Emax", "setting": "β-arrestin 2", "result": "30 to 50", "unit": "%"}, {"measurement": "Emax", "setting": "β-arrestin 1", "result": "30 to 50", "unit": "%"}, {"measurement": "EC50", "setting": "human GLP-1 receptor", "result": 0.0064, "unit": "nM"}]}, {"molecule": "COc1cc(C(=O)O)cc2c1nc(CN1CCC(c3cccc(OCc4ccc(Cl)cc4F)n3)CC1)n2C[C@@H]1CCO1", "note": "[Compound 19, (S)-2-((4-(6-((4-chloro-2-fluorobenzyl)oxy)pyridin-2-yl)piperidin-1-yl)methyl)-4-methoxy-1-(oxetan-2-ylmethyl)-1H-benzo[d]imidazole-6-carboxylic acid]", "values": [{"measurement": "effect on food intake compared with positive control PF-06882961 ammonium salt at the same dose", "setting": "[2]", "result": "better than the positive control PF-06882961 ammonium salt"}, {"measurement": "food intake", "setting": "[2]; ammonium salt, within 0 to 12 hours after administration", "result": "significantly inhibit the food intake"}, {"measurement": "IC50", "setting": "hERG potassium channels", "result": 12500, "unit": "nM"}, {"measurement": "effect compared with positive control PF-06882961 ammonium salt at the same dose", "setting": "[3]; 1 mg/kg oral", "result": "better than the positive control PF-06882961 ammonium salt"}, {"measurement": "lowering blood sugar in long-term oral glucose tolerance test", "setting": "[3]; ammonium salt, 1 mg/kg oral, second sugar load 240 min after administration, AUC(180-270), vs PF-06882961 ammonium salt", "result": "more significant effect in lowering blood sugar"}, {"measurement": "blood glucose area under the curve", "setting": "[3]; ammonium salt", "result": "significantly reduce"}, {"measurement": "blood glucose concentration", "setting": "[3]; ammonium salt", "result": "significantly reduce"}, {"measurement": "EC50", "setting": "human GLP-1 receptor", "result": 0.0026, "unit": "nM"}]}, {"molecule": "COc1cc(Cl)ccc1COc1cccc(N2C=NN(Cc3nc4c(OC)cc(C(=O)O)cc4n3C[C@@H]3CCO3)CC2)n1", "note": "[Compound 20, (S)-2-((4-(6-((4-chloro-2-methoxybenzyl)oxy)pyridin-2-yl)-5,6-dihydro-1,2,4-triazin-1(4H)-yl)methyl)-4-methoxy-1-(oxetan-2-ylmethyl)-1H-benzo[d]imidazole-6-carboxylic acid]", "values": [{"measurement": "Emax", "setting": "β-arrestin 2", "result": "30 to 50", "unit": "%"}, {"measurement": "IC50", "setting": "hERG potassium channels", "result": "> 40000", "unit": "nM"}, {"measurement": "effect compared with positive control PF-06882961 ammonium salt at the same dose", "setting": "[3]; 1 mg/kg oral", "result": "better than the positive control PF-06882961 ammonium salt"}, {"measurement": "blood glucose area under the curve", "setting": "[3]; ammonium salt", "result": "significantly reduce"}, {"measurement": "blood glucose concentration", "setting": "[3]; ammonium salt", "result": "significantly reduce"}, {"measurement": "Emax", "setting": "β-arrestin 1", "result": "30 to 50", "unit": "%"}]}, {"molecule": "O=C(O)c1cc(F)c2nc(CN3CCN(c4cccc(OCc5ccc(Cl)cc5F)n4)C=N3)n(C[C@@H]3CCO3)c2c1", "note": "[CN2022114139828 , Compound 2, reference compound]", "values": [{"measurement": "Emax", "setting": "β-arrestin 2", "result": "75 to 80", "unit": "%"}, {"measurement": "Emax", "setting": "β-arrestin 1", "result": "75 to 80", "unit": "%"}]}]}
